Read-outs that look alike come from different tables or passages of the source.
What was measured:
[1] = system: B16 tumor-bearing C57BL/6 mice; assay: Toxicity and safety profiling in vivo (serum biochemistry, routine blood, H&E); design: species or system mouse; conditions: hematological parameters in the blood
Experimental: The B16 tumor-bearing C57BL/6 mice were divided into 4 groups randomly (n = 3 per group) and treated with vehicle, KTC1101 (100 mg/kg 3on/4off, PO), anti-PD-1 antibody (250 μg per mouse, IP), or a combination of KTC1101 and anti-PD-1 antibody. After 14 days of treatment, all mice were sacrificed. Blood samples were collected for analysis; one portion was centrifuged (3000 rpm, 4 °C) to obtain serum for biochemical parameter analysis, including alanine aminotransferase (ALT), aspartate aminotransferase (AST), creatinine (CREA), and blood urea nitrogen (BUN). The other portion was used for routine blood examination. Major organs including the heart, liver, spleen, lung, and kidney were collected, sectioned, and stained with H&E for histopathological evaluation.

[2] = system: B16 tumor tissue gene expression; assay: RNA-Seq (DEGs, GSEA, GSVA, CIBERSORT) of B16 tumors after KTC1101; type: in vivo, mouse; conditions: 100 mg/kg for 3 days
Description: Total RNA was isolated using TRIzol reagent.
Cell-type Identification by Estimating Relative Subsets of RNA Transcripts (CIBERSORT) was used to perform a deconvolution analysis of the gene expression matrix based on the principle of linear […]. The CIBERSORT algorithm, with a reference to 511 mouse gene signatures, categorized immune cell populations into seven groups and calculated composition scores: B cells including memory, naive, and plasma cells; CD8^+ T cells including memory, naive, and activated cells; CD4^+ T cells including memory, naive, follicular, Th1, Th2, and Th17 cells; DCs including activated and immature cells; the rest being mast cells, Tregs, and monocytes.

[3] = Liver microsome metabolic stability assay; conditions: mouse, liver microsomes
[4] = system: phosphorylation of AKT and mTOR; assay: Western blot of PI3K pathway; type: cell-based, human; conditions: 48 h
Experimental: Western blots were performed as previously described. Cells were seeded into six-well plates and treated with DMSO or a series of concentrations of KTC1101. Cells were lysed, and total proteins were harvested. Equal amounts of protein (20–50 μg) were separated using 8% or 12% SDS-PAGE and transferred to polyvinylidene difluoride membranes (Bio-Rad). After blocking in 5% nonfat dry milk, the membranes were incubated with appropriate primary antibodies overnight at 4 °C, washed, and incubated with respective HRP-conjugated secondary antibodies for 1 h at room temperature. The signals were detected using a ChemiDoc XRS + System (Bio-Rad) after exposure to chemiluminescence reagents (Bio-Rad), and β-actin served as the loading control.

MKN-B = assay: JFCR39 sulforhodamine B growth assay; type: cell-based; conditions: Homo sapiens, 48 h
Experimental: (§1) JFCR39 drug discovery system was used to measure the growth inhibitory activities and identify the target of KTC1101. The JFCR39 panel consists of 39 cell lines seeded in 96-well plates. After 48-h treatment with KTC1101, cell growth was measured using the sulforhodamine B assay. […] The deviation of log GI50 for each cell line from the average log GI50 across the JFCR39 panel was plotted as a fingerprint. MG-MID (mean of Log GI50 values) represents the average log GI50 for all 39 cell lines. The most sensitive and least sensitive cell lines were identified by calculating the difference in their log GI50 values (Range) and the difference between the most sensitive cell line and the average GI50 on the JFCR39 panel (Delta). The fingerprint of KTC1101 was compared with the fingerprints of reference compounds in the database. The Pearson correlation coefficient (r) was calculated (n = 39).

PC-3 = assay: JFCR39 sulforhodamine B growth assay; type: cell-based; conditions: Homo sapiens, PC-3, 48 h
Experimental: as §1

MCF-7 = assay: JFCR39 sulforhodamine B growth assay; type: cell-based; conditions: Homo sapiens, MCF7; MCF-7, 48 h
Experimental: as §1

MKN-A = assay: JFCR39 sulforhodamine B growth assay; type: cell-based; conditions: Homo sapiens, 48 h
Experimental: as §1

DMS114 = assay: JFCR39 sulforhodamine B growth assay; type: cell-based; conditions: Homo sapiens, DMS-114; DMS114, 48 h
Experimental: as §1

NCI-H460 = assay: JFCR39 sulforhodamine B growth assay; type: cell-based; conditions: Homo sapiens, NCI-H460, 48 h
Experimental: as §1

RXF-631L = assay: JFCR39 sulforhodamine B growth assay; type: cell-based; conditions: Homo sapiens, 48 h
Experimental: as §1

MKN1 = assay: JFCR39 sulforhodamine B growth assay; type: cell-based; conditions: Homo sapiens, MKN-1; MKN1, 48 h
Experimental: as §1

BSY-1 = assay: JFCR39 sulforhodamine B growth assay; type: cell-based; conditions: Homo sapiens, BSY-1, 48 h
Experimental: as §1

HT-29 = assay: JFCR39 sulforhodamine B growth assay; type: cell-based; conditions: Homo sapiens, HT-29, 48 h
Experimental: as §1

SF-539 = assay: JFCR39 sulforhodamine B growth assay; type: cell-based; conditions: Homo sapiens, SF-539, 48 h
Experimental: as §1

NCI-H23 = assay: JFCR39 sulforhodamine B growth assay; type: cell-based; conditions: Homo sapiens, NCI-H23, 48 h
Experimental: as §1

SK-OV-3 = assay: JFCR39 sulforhodamine B growth assay; type: cell-based; conditions: Homo sapiens, SK-OV-3, 48 h
Experimental: as §1

NCI-H522 = assay: JFCR39 sulforhodamine B growth assay; type: cell-based; conditions: Homo sapiens, NCI-H522, 48 h
Experimental: as §1

St-4 = assay: JFCR39 sulforhodamine B growth assay; type: cell-based; conditions: Homo sapiens, St-4, 48 h
Experimental: as §1

OVCAR-8 = assay: JFCR39 sulforhodamine B growth assay; type: cell-based; conditions: Homo sapiens, OVCAR-8, 48 h
Experimental: as §1

MKN45 = assay: JFCR39 sulforhodamine B growth assay; type: cell-based; conditions: Homo sapiens, MKN-45; MKN45, 48 h
Experimental: as §1

KM-12 = assay: JFCR39 sulforhodamine B growth assay; type: cell-based; conditions: Homo sapiens, KM12; KM-12, 48 h
Experimental: as §1

SF-268 = assay: JFCR39 sulforhodamine B growth assay; type: cell-based; conditions: Homo sapiens, SF-268, 48 h
Experimental: as §1

ACHN = assay: JFCR39 sulforhodamine B growth assay; type: cell-based; conditions: Homo sapiens, 48 h
Experimental: as §1

[5] = system: JFCR39 panel of 39 human tumor cell lines; assay: JFCR39 panel growth inhibition, panel statistics; type: cell-based; conditions: for GI50: Homo sapiens
Experimental: as §1

COc1cc(N)cc2c1nc(C(F)F)n2-c1nc(N2CCCOCC2)nc(N2CCOCC2)n1 [KTC1101, 2-(difluoromethyl)-4-methoxy-1-(4-morpholino-6-(1,4-oxazepan-4-yl)-1,3,5-triazin-2-yl)-1H-benzo[d]imidazol-6-amine]
GRAN [1]: 0.93±0.67 109L-1 | MCV [1]: 52.90 ± 8.84 fL | PLT [1]: 745.00±220.75 109L-1 | RBC [1]: 6.03±2.50 1012L-1 | RDW [1]: 17.97±3.41% | WBC [1]: 3.67±3.06 109L-1 | immune-related pathways (GSEA, GSVA) [2]: prominently upregulated | half-life at 1 µM [3]: 40.7 min | microsomal CLint at 1 µM [3]: 34 µL/min/mg | phosphorylation of AKT and mTOR [4]: reduced phosphorylation | GI50 (MKN-B): 0.0288 µM | GI50 (PC-3): 0.0158 µM | GI50 (MCF-7): 0.01 µM | GI50 (MKN-A): 0.145 µM | GI50 (DMS114): 0.01 µM | GI50 (NCI-H460): 0.01 µM | GI50 (RXF-631L): 0.0155 µM | GI50 (MKN1): 0.01 µM | GI50 (BSY-1): 0.01 µM | GI50 (HT-29): 0.0617 µM | GI50 (SF-539): 0.01 µM | GI50 (NCI-H23): 0.0257 µM | GI50 (SK-OV-3): 0.0129 µM | GI50 (NCI-H522): 0.01 µM | GI50 (St-4): 0.105 µM | GI50 (OVCAR-8): 0.0309 µM | GI50 (MKN45): 0.162 µM | GI50 (KM-12): 0.178 µM | GI50 (SF-268): 0.0182 µM | GI50 (ACHN): 0.0214 µM | GI50 ([5]; JFCR39 panel, read-out: mean GI50 across all 39 cell lines): 0.0234 µM | GI50 ([5]; all 39 cell lines, read-out: MG-MID (mean of Log GI50 values) (converted)): 0.0234 µM | fold lower mean GI50 than Copanlisib ([5]; JFCR39 panel): 5.7 fold | fold lower mean GI50 than ZSTK474 ([5]; JFCR39 panel): 13.7 fold
